Source: US10428080B2, “TBK/IKK inhibitor compounds and uses thereof” (Merck Patent GmbH, priority 2015, dated 2019)
pIC50: −log10 of the molar value. Structures can show the parent of a compound that is named as a salt.

How the values were obtained:
IKKε = biological target: T1, IKKε (Homo sapiens, UniProt Q14164); assay: IKKe Biochemical Assay; conditions: read-out: IKKε IC50
T1 sequence (Q14164 1-716): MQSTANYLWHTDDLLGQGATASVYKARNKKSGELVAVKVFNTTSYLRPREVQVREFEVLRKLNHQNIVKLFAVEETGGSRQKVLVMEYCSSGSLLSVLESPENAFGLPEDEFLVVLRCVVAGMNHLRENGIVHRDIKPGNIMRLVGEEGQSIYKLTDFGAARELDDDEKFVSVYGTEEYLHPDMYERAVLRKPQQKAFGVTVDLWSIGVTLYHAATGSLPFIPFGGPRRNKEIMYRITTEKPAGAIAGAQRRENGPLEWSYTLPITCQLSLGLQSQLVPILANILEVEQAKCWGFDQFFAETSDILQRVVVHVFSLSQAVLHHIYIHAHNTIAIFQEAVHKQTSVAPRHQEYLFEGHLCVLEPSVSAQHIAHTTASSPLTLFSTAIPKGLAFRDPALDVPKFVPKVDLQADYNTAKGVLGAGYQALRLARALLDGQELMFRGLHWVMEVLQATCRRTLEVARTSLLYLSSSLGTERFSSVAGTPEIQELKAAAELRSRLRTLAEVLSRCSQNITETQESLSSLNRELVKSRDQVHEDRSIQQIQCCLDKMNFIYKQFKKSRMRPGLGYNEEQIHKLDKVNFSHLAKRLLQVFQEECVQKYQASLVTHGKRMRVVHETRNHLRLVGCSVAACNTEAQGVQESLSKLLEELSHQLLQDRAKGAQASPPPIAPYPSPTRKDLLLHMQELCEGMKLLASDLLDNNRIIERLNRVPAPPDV
Experimental: (§1) Test compounds were transferred into Labcyte polypropylene 384 well plates (P055-25) and diluted to 3 mM using DMSO. 3 mM test compounds were dispensed using Labcyte ECHO dose response module into (Greiner 784075 plates (columns 3-12 and 13-22, 10 point 1:4) so that high concentration was 30 uM final. 100 uM of a reference compound (1 uM final high concentration). Backfilling was performed if necessary so that all wells contain 1% DMSO final: […]
(§2) add 75 nl DMSO/well into columns 1, 2 and 24 using Labcyte Echo. add 75 nl 1.0 mM staurosporine/well into column 23 using Labcyte Echo (10 uM final) add 4.5 ul enzyme/well using multidrop dispenser add 3 ul substrate/well using multidrop dispenser incubate at 25° C. for 90 min. add 7.5 ul 2× stop buffer read on labchip ez reader II using IKKε. job
(§3) Raw data files were opened in the Caliper LabChip Reviewer program (Version 3.0.265.0 SP2) and peak assignments were adjusted to reflect “substrate first” with the software's post-run analysis options. A spline-fit baseline was applied using the software's analysis algorithm.

TBK1 = biological target: T2, TBK1 (Homo sapiens, UniProt Q9UHD2); assay: TBK Biochemical Assay; conditions: read-out: TBK1 IC50
T2 sequence (Q9UHD2 1-729): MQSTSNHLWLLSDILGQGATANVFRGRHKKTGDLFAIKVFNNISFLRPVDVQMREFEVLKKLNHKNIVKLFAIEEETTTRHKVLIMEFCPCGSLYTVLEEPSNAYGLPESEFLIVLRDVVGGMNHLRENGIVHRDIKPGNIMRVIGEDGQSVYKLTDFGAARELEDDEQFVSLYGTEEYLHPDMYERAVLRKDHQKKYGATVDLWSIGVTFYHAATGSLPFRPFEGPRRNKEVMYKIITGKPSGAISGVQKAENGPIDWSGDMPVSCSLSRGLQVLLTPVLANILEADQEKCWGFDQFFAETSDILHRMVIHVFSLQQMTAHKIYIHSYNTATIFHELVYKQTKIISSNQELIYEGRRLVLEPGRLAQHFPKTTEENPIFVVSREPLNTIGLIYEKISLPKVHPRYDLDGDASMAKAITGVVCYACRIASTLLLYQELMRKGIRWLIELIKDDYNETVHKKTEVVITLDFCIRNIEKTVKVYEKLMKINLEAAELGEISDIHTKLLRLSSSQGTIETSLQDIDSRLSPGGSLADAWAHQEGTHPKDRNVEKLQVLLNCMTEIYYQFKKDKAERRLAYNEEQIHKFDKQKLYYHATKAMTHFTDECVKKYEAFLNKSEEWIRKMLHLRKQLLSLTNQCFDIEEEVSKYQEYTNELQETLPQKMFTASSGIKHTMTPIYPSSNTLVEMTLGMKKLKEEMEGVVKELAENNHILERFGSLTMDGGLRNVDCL
Experimental: Example 482: TBK Biochemical Assay
as §1, with “Greiner” for “(Greiner”
as §2, with “C. in Heidolph incubator” for “C.”, “buffer using multidrop dispenser” for “buffer”, “TBK1.job” for “IKKε. job”
as §3

| pIC50 (IKKε) | pIC50 (TBK1) | Structure (SMILES) |
| --- | --- | --- |
|  | < 5.30 | COc1cc(C(=O)N(C)C)cnc1-c1cc2ncc(C3CC3)c(-c3ccc(NC4CCOCC4)c(C#N)c3)c2o1 [Compound 522, 6-(7-[3-cyano-4-[(oxan-4-yl)amino]phenyl]-6-cyclopropylfuro[3,2-b]pyridin-2-yl)-5-methoxy-N,N-dimethylpyridine-3-carboxamide] |
|  | < 5.30 | COc1cc(C(=O)N(C)CCO)cnc1-c1cc2ncc(C(C)C)c(-c3ccc(OC4CCOCC4)c(C#N)n3)c2o1 [Compound 359, 6-[7-[6-cyano-5-(oxan-4-yloxy)pyridin-2-yl]-6-(propan-2-yl)furo[3,2-b]pyridin-2-yl]-N-(2-hydroxyethyl)-5-methoxy-N-methylpyridine-3-carboxamide hydrochloride] |
|  | < 5.30 | CN(CCO)C(=O)c1ccc(-c2cc3ncc(C4CC4)c(-c4ccc(NC5CCOCC5)c(C#N)c4)c3o2)c(F)c1 [Compound 311, 4-(7-(3-cyano-4-(tetrahydro-2H-pyran-4-ylamino)phenyl)-6-cyclopropylfuro[3,2-b]pyridin-2-yl)-3-fluoro-N-(2-hydroxyethyl)-N-methylbenzamide] |
|  | < 5.30 | COc1ccc(C#N)cc1-c1ccnc2cc(-c3ncc(C(=O)N(C)C)cc3OC)oc12 [Compound 490, 6-{7-[5-Cyano-2-methoxy-phenyl)-furo[3,2-b]pyridin-2-yl}-5-methoxy-N,N-dimethyl-nicotinamide] |
|  | < 5.30 | COc1cc(C(=O)N(C)C)cnc1-c1cc2ncc(C(C)C)c(-c3ccc(NC4CCOCC4)c(C#N)c3)c2o1 [Compound 335, 6-(7-[3-cyano-4-[(oxan-4-yl)amino]phenyl]-6-(propan-2-yl)furo[3,2-b]pyridin-2-yl)-5-methoxy-N,N-dimethylpyridine-3-carboxamide hydrochloride] |
|  | < 5.30 | CN(CCO)C(=O)c1ccc(-c2cc3ncc(C4CC4)c(-c4ccc(OC5CCOCC5)c(C#N)c4)c3o2)c(F)c1 [Compound 312, 4-(7-(3-cyano-4-(tetrahydro-2H-pyran-4-yloxy)phenyl)-6-cyclopropylfuro[3,2-b]pyridin-2-yl)-3-fluoro-N-(2-hydroxyethyl)-N-methylbenzamide] |
|  | < 5.30 | COc1cc(C(=O)N(C)C)cnc1-c1cc2ncc(C(C)C)c(-c3ccc(OC4CCOCC4)c(C#N)c3)c2o1 [Compound 332, 6-[7-[3-cyano-4-(oxan-4-yloxy)phenyl]-6-(propan-2-yl)furo[3,2-b]pyridin-2-yl]-5-methoxy-N,N-dimethylpyridine-3-carboxamide] |
|  | < 5.30 | COc1cc(C(=O)N(C)C)cnc1-c1cc2ncc(C(C)C)c(-c3ccc(NC4CCOCC4)c(C#N)n3)c2o1 [Compound 361, 6-(7-[6-cyano-5-[(oxan-4-yl)amino]pyridin-2-yl]-6-(propan-2-yl)furo[3,2-b]pyridin-2-yl)-5-methoxy-N,N-dimethylpyridine-3-carboxamide] |
|  | < 5.30 | COc1cc(C(=O)N(C)C)cnc1-c1cc2ncc(C(C)C)c(-c3ccc(OC4CCOCC4)c(C#N)n3)c2o1 [Compound 331, 6-[7-[6-cyano-5-(oxan-4-yloxy)pyridin-2-yl]-6-(propan-2-yl)furo[3,2-b]pyridin-2-yl]-5-methoxy-N,N-dimethylpyridine-3-carboxamide hydrochloride] |
|  | < 5.30 | COc1cc(C(=O)N(C)C)cnc1-c1cc2ncc(Cl)c(-c3ccc(NC4CCOCC4)c(C#N)c3)c2o1 [Compound 337, 6-(6-chloro-7-[3-cyano-4-[(oxan-4-yl)amino]phenyl]furo[3,2-b]pyridin-2-yl)-5-methoxy-N,N-dimethylpyridine-3-carboxamide] |
|  | < 5.30 | COc1cc(C(=O)N(C)C)cnc1-c1cc2ncc(C3CC3)c(-c3ccc(NC4CCOCC4)c(C#N)n3)c2o1 [Compound 353, 6-(7-[6-cyano-5-[(oxan-4-yl)amino]pyridin-2-yl]-6-cyclopropylfuro[3,2-b]pyridin-2-yl)-5-methoxy-N,N-dimethylpyridine-3-carboxamide hydrochloride] |

Continued, compound first:

| Structure (SMILES) | pIC50 (IKKε) | pIC50 (TBK1) |
| --- | --- | --- |
| COC(=O)c1ccc(-c2cc3nccc(-c4ccc(Oc5ccccc5F)c(C#N)c4)c3o2)cc1 [Compound 205] | < 5.30 |  |
| CN(C)C(=O)c1ccc(-c2cc3ncc(C4CC4)c(-c4ccc(NC5CCOCC5)c(C#N)c4)c3o2)c(F)c1 [Compound 309, 4-(7-[3-cyano-4-[(oxan-4-yl)amino]phenyl]-6-cyclopropylfuro[3,2-b]pyridin-2-yl)-3-fluoro-N,N-dimethylbenzamide] |  | < 5.30 |
| CC1CC(Oc2ccc(-c3ccnc4cc(-c5ccc(C(=O)N(C)C)cc5)oc34)cc2C#N)CC(C)O1 (centres unmarked) [Compound 213, 4-{7-[3-Cyano-4-(2,6-dimethyl-tetrahydro-pyran-4-yloxy)-phenyl]-furo[3,2-b]pyridin-2-yl}-N,N-dimethyl-benzamide] | < 5.30 |  |
| COc1cc(C(=O)N(C)C)ccc1-c1cc2nccc(-c3ccc(OC4CCOCC4OCc4ccccc4)c(C#N)c3)c2o1 (centres unmarked) [Compound 211] | 6.00 to 7.00 |  |
| CC1COCC(C)C1Oc1c(F)cc(-c2ccnc3cc(-c4ccc(C(=O)N(C)C)cc4)oc23)cc1C#N (centres unmarked) [Compound 289, 4-(7-[3-cyano-4-[(3,5-dimethyloxan-4-yl)oxy]-5-fluorophenyl]furo[3,2-b]pyridin-2-yl)-N,N-dimethylbenzamide] |  | < 5.30 |
| CN(C)C(=O)c1ccc(-c2cc3nccc(-c4cc(F)c(OC5CCOC6(CC6)C5)c(C#N)c4)c3o2)cc1 (centres unmarked) [Compound 288, 4-[7-(3-cyano-5-fluoro-4-[4-oxaspiro[2.5]octan-7-yloxy]phenyl)furo[3,2-b]pyridin-2-yl]-N,N-dimethylbenzamide hydrochloride] |  | < 5.30 |
| COc1cc(C(=O)N(C)C)ccc1-c1cc2nccc(-c3cc(F)c(OC4C(C)COCC4C)c(C#N)c3)c2o1 (centres unmarked) [Compound 294, 4-(7-[3-cyano-4-[(3,5-dimethyloxan-4-yl)oxy]-5-fluorophenyl]furo[3,2-b]pyridin-2-yl)-3-methoxy-N,N-dimethylbenzamide] |  | < 5.30 |
| CN(C)C(=O)c1ccc(-c2cc3ncc(C4CC4)c(-c4ccc(OC5CCOCC5)c(C#N)c4)c3o2)c(F)c1 [Compound 310, 4-[7-[3-cyano-4-(oxan-4-yloxy)phenyl]-6-cyclopropylfuro[3,2-b]pyridin-2-yl]-3-fluoro-N,N-dimethylbenzamide] |  | < 5.30 |
| COc1cc(C(=O)N(C)C)ccc1-c1cc2nccc(-c3cc(F)c(OC4CCOC5(CC5)C4)c(C#N)c3)c2o1 (centres unmarked) [Compound 293, 4-[7-(3-cyano-5-fluoro-4-[4-oxaspiro[2.5]octan-7-yloxy]phenyl)furo[3,2-b]pyridin-2-yl]-3-methoxy-N,N-dimethylbenzamide] |  | < 5.30 |
